Laboratory results published in paper PMC4010398, “A Phase I Clinical Trial of Systemically Delivered NEMO Binding Domain Peptide in Dogs with Spontaneous Activated B-Cell like Diffuse Large B-Cell Lymphoma” (PLoS ONE, 2014).
“Also recorded” adds a separate entry of the source.

Columns and labels:
[1] = test system: dogs with spontaneous ABC-like DLBCL; assay: Phase I 3+3 dose escalation: adverse events and toxicity (VCOG-CTCAE); assay type: in vivo, dog
Description: The clinical trial protocol was fully approved by the University of Pennsylvania's Institutional Animal Care and Use Committee (Privately Owned Animal Protocol number: 803765). Only dogs with full written informed owner consent were eligible for enrollment. […] The histopathological diagnosis of DLBCL and cytological confirmation of large B cell lymphoma were made by board certified veterinary pathologists (M.G., and A.D., see acknowledgements) and by a board certified clinical pathologist (R.P.) respectively. Only dogs with DLBCL and constitutive NF-κB activity within their malignant lymph nodes as determined by the presence of phospho-IKK, phospho-IκBα and phospho-p65 were eligible to receive NBD peptide.
(§1) Tumor burden was calculated by measuring three dimensions (length, width and height) for each malignant lymph node. The mass of each node was calculated as previously described and the sum of measured lymph node mass was considered as total tumor mass. Response to NBD peptide was evaluated according to the Veterinary Cooperative Oncology Group criteria for assessment of response in peripheral nodal lymphoma, adapted for use in dogs from the published RECIST criteria. The Veterinary Cooperative Oncology Group Common Terminology for Adverse Events, version 1.0 was used to grade adverse events.

[2] = test system: constitutive canonical NF-κB signaling (phospho-IKKα/β:IKKβ); assay: Immunoblot and densitometry of phospho-IKK in malignant lymph node biopsies, pre and 24 h post peptide; assay type: in vivo, dog; conditions: malignant lymph node biopsy 24 hours after single 1 h i.v. infusion, 0.5-2 mg/kg, vs pre-treatment; paired samples from ten of eleven dogs
Method: Lymph node biopsy samples were mechanically dissociated in RPMI and red blood cells were removed using ACK lysis buffer (Gibco) according to manufacturer's instructions. Cells were lysed in 50 mM Tris-HCL containing 1% NP-40, 150 mM NaCl, 2.5 mM EDTA, 5% glycerol, a 1∶50 dilution of Protease Inhibitor Cocktail and 1∶50 dilutions of Phosphatase Inhibitor Cocktails 2 and 3 (Sigma-Aldrich, Saint Louis, MO). Samples were centrifuged and protein concentrations were determined by micro BCA assay (Thermo Scientific, Rockford, IL). Proteins from whole cell extracts were separated by SDS-PAGE (10%) followed by transfer to PVDF membrane. Membranes were probed with polyclonal rabbit anti-human antibodies against phospho-IKKα/β (16A6), IKKβ (L570), phospho-IκBα (14D4), mouse anti-human IκBα (L35A5) and β-actin (4967) (Cell Signaling, Danvers, MA). An HRP-conjugated donkey anti-rabbit or anti-mouse IgG was used as the secondary detection antibody (Amersham, Piscataway, NJ). Blots were developed using ECL Plus (Amersham, Piscataway, NJ). Densitometry was performed using ImageJ software and integrated density values for each band were obtained using the Analyze Particles function.

[3] = Hematological and biochemical parameters before and one week after treatment; assay type: in vivo, dog
Method: In this phase I dose escalation clinical trial, both treatment-naïve and relapsed dogs were enrolled. NBD peptide was administered according to a standard 3+3 trial design. […] Peptide was reconstituted to 50 mM in sterile DMSO and diluted in 20 mls of lactated Ringers solution immediately prior to intravenous administration at a constant rate of 20 ml/hr. […] Following the post-treatment biopsy, dogs received induction or rescue chemotherapy as determined by their primary attending veterinary oncologist and a short course of prophylactic antibiotics (amoxicillin). All dogs received a follow-up full clinical examination, CBC, CS and urinalysis one week post NBD peptide.

Ki67 = Ki67 immunohistochemistry of malignant lymph node biopsies; assay type: in vivo, dog; conditions: 24 hours post peptide vs pre; 10 high power fields
Method: (§2) Immunohistochemical analysis was performed on 5 micron sections of formalin fixed paraffin embedded lymph node tissue from dogs with spontaneous DLBCL using a DAKO automatic universal staining system. Sections were heated in a 60°C oven for 1 hour, depararaffinized in PRO PAR clearant and rehydrated in progressively decreasing grades of ethanol. Antigen retrieval was performed by boiling sections in sodium citrate buffer, pH ∼9.0 for 15 minutes. Endogenous peroxidase was blocked with 3% hydrogen peroxide. For Ki67 staining, a 1∶50 dilution of a monoclonal mouse anti-human antibody (Clone MIB-1, DAKO) was used and immunodetection was performed using a biotinylated goat anti-rabbit/anti-mouse immunoglobulin and SA-HRP (LSAB2 kit, DAKO, Carpinteria, CA). For IRF-4 staining, a 1∶200 dilution of a polyclonal mouse anti human antibody (DAKO, M7259) was used and immunodetection was performed using a peroxidase polymer conjugated anti-mouse secondary antibody system (ImmPRESS Anti-mouse Ig peroxidase polymer detection kit). In all cases, antibody binding was detected using 3,3′-diaminobenzidine solution and tissues were counterstained with hematoxylin. Slides were viewed using a Nikon E600 infinity corrected upright microscope. […] Apoptotic cells were detected using the cell death detection kit (Roche, Indianapolis, IA) following the manufacturer's instructions. […]

Cyclin D1 = assay: qRT-PCR of Cyclin D1 in malignant lymph node biopsies; assay type: in vivo, dog; conditions: 24 hour post-peptide biopsy normalized to pre-treatment; β-actin control, triplicate
Method: (§3) Lymph node biopsies were immediately placed in RNAlater (Ambion, Austin, TX) and stored at –80°C prior to RNA extraction. Total RNA extraction was performed using the RNeasy Mini Kit (Qiagen, Valencia, CA). Reverse transcription was performed using random hexamers and Superscript II reverse transcriptase (Invitrogen Corp., Carlsbad. CA, USA) according to the manufacturer's instructions. Primer sequences for canine A1, A20, Bcl-XL, c-FLIP, Cyclin D1, Bcl-2, XIAP and β-actin have been previously described, [35]. Primers were synthesized by Invitrogen Corp. Real-time PCR assays were performed using SYBR Green (Fermentas, Glen Burnie, Maryland). Samples were run in triplicate using standard conditions on an ABI 7500 sequence detector (Applied Biosystems, Carlsbad, CA) and data were analyzed using β-actin as an endogenous control. Dissociation curves were performed after each experiment to confirm the specificity of product amplification. Statistical analysis was performed using a two-tailed Student's ‘t’ test where statistical significance = p<0.05.

[4] = test system: NF-κB target genes (A1, c-FLIP, XIAP, Bcl-XL, Bcl-2 and A20); assay: qRT-PCR of pro-survival NF-κB target genes in malignant lymph nodes; assay type: in vivo, dog
Method: as §3

malignant lymph nodes [5] = assay: TUNEL staining of malignant lymph node biopsies; assay type: in vivo, dog; conditions: 24 hours post peptide vs pre; tissue available from 9 dogs
Method: as §2

malignant lymph nodes [6] = assay: Measureable tumor mass before and 24 h after peptide; assay type: in vivo, dog; conditions: 24 hours after NBD peptide; measurements available for 10 treated dogs
Method: as §1

[7] = test system: dogs with spontaneous ABC-like DLBCL; assay: Clinical response and survival after NBD peptide plus chemotherapy; assay type: in vivo, dog
Method: as §1

malignant node = conditions: local, intranodal administration; cited from earlier work
Description: (§4) Pet dogs that develop Non-Hodgkins Lymphoma (NHL) are recognized as a clinically relevant, spontaneous large animal model of the human disease, [27]–[31]. […] Furthermore, tissue microarrays from lymphomatous canine tissue confirmed the presence of constitutive NF-κB activity and pharmacological inhibition of IKK leads to in ...

[8] = test system: primary malignant canine B cells; conditions: in vitro, cited from earlier work
Description: as §4

rats, mice and piglets = conditions: doses ranging from 0.75 mg/kg to 20 mg/kg; cited from earlier work
Description: In this study, as a consequence of dru ...

[9] = Plasma pharmacokinetics after intravenous infusion (mass spectrometry)
Method: In this phase I dose escalation clinical trial, both treatment-naïve and relapsed dogs were enrolled. NBD peptide was administered according to a standard 3+3 trial design. The dose endpoint was the dose at which canonical NF-κB signaling was inhibited within malignant lymph nodes. Peptide was reconstituted to 50 mM in sterile DMSO and diluted in 20 mls of lactated Ringers solution immediately prior to intravenous administration at a constant rate of 20 ml/hr. Twenty-four hours post NBD peptide administration, excisional or Tru-cut biopsies of a peripheral malignant lymph node were taken for Western blot, qRT-PCR and histopathological analysis.
EDTA anti-coagulated blood samples were taken at 0, 30, 60, 90, 120, 240, 360 mins and 24 hours post infusion. Plasma was separated by centrifugation and stored at −80°C prior to pharmacokinetic analysis. Mass spectrometer analysis of NBD peptide in plasma samples was performed by Frontage Laboratories, Exton, PA and pharmacokinetic (PK) parameters were determined using WinNonlin v5.2 software. The lower limit of quantification (LLOQ) was set to 10 ng/ml however, in some instances the LLOQ was changed to 20 ng/ml because of potential interference in the samples.

[10] = one week after NBD peptide plus induction or rescue chemotherapy

NEMO Binding Domain (NBD) peptide [NBD peptide]
acute or chronic toxicities at any dose evaluated ([1]; 0.5-2.0 mg/kg single i.v. dose, clinical, hematological and biochemical parameters): no significant acute or chronic toxicities
safety of intravenous administration ([1]; <2 mg/kg i.v.): safe
dogs that became drowsy and developed moderate tachycardia and hypertension during infusion ([1]; Group 1, 0.5 mg/kg i.v., three dogs, no premedication, mild, transient, resolved when infusion was discontinued): two
additional dogs with transient hypertension ([1]; Group 2, 1 mg/kg i.v., premedicated with ondansetron and diphenhydramine): one
maximum tolerated dose of NBD peptide in dogs ([1]; doses 0.5-2.0 mg/kg i.v.): not reached
dogs showing reductions in the phosphorylation status of IKK (pIKK:IKK) [2]: 6/10 and Six out of ten
dogs with significant but asymptomatic increases in liver values (ALT, ALKP, AST and GGT) one week later ([3]; Group 2, 1 mg/kg, dog also received L'asparaginase 24 hrs after peptide, values returned to baseline two weeks later): One
dogs with elevated ALKP prior to peptide that showed further increases in ALKP post treatment ([3]; all previously treated for relapsed lymphoma, one week after NBD peptide plus chemotherapy): 4/11
dogs with an increase in platelet count [3, 10]: 8/11
dogs with mild decreases in lymphocyte counts [3, 10]: 9/11
dogs with mild decreases in hematocrit ([3]; one week after NBD peptide plus induction or rescue chemotherapy, most values within the normal range): 9/11
dogs with a statistically significant reduction in the number of Ki67+ cells (Ki67): Four
dogs with a decrease in the expression of Cyclin D1 (Cyclin D1): Eight out of eleven
inhibition of NF-κB target genes in the one dog that received 2 mg/kg (dog 11) ([4]; 2 mg/kg i.v., 24 hours after peptide, compared with the other dogs): most significant inhibition
dogs in which the expression of 3 or more target genes was reduced ([4]; 24 hours after NBD peptide, six genes evaluated): 6 out of 11
dogs with a trend towards an increase in apoptosis (TUNEL) (malignant lymph nodes [5]): Five
dogs with greater than 20% reduction in measureable tumor mass (malignant lymph nodes [6]): Five out of 10
dogs that achieved clinical remission (CR) ([7]; NBD peptide plus chemotherapy, eleven dogs, including 5 dogs treated at first relapse): Seven
dogs that survived greater than 16 months ([7]; after peptide administration and chemotherapy): three
effect on tumor burden (malignant node): decreases tumor burden
effect on cell survival ([8]; NBD peptide fused to AntP): rapid apoptosis
effect on phosphorylation of IKK and IκBα ([8]; NBD peptide fused to the cell penetrating Antennapedia peptide (AntP)): inhibits phosphorylation
tolerability of systemic administration (rats, mice and piglets): well tolerated
plasma concentrations of NBD peptide at the doses studied ([9]; 0.5-2.0 mg/kg i.v.): very low
NBD peptide in plasma after 60 mins ([9]; any dog, sampling up to 24 hours post infusion, LLOQ 10 or 20 ng/ml): not detected; also recorded: undetectable
